From patent US20240368145A1, “METHODS FOR TREATING CANCER” (IMMUNIC AG, priority 2021, published 2024) come the findings set out here.

Bounds are passed on as bounds.

In one assay the test system is IL-17F. Briefly: Cytokine assay, human PBMC stimulated with PHA: IL-17F. Conditions: PHA-activated, 48 hours, read-out: IL-17F inhibition (IC50 range). The assay is classed as cell-based. As for the experimental part:
(§1) Peripheral blood mononuclear cells (PBMC) from healthy human donors were purified using Accuspin™ System-Histopaque-1077 (Sigma) according to the protocol recommended by the manufacturer. Purified PBMC were then washed twice with phosphate-buffered saline (PBS) and resuspended in RPMI1640 culture medium supplemented with 10% dialyzed heat inactivated fetal calf serum, 1.5 mM L-glutamine, 100 U penicillin/mL and […] streptomycin/mL (all from PAN Biotech, Aidenbach, Germany). For stimulation, PBMC were seeded at 1×10^5 cells/well, activated with 2 gg/mL phytohaemagglutinin (PHA, Sigma) and incubated with the test compounds for 48 hours. IL-17A, IL-17F and INFγ were then determined in the culture supernatant using a Luminex BioPlex system, following the manufacturer's instructions (BioRad, Munich, Germany). To determine the IC50, compounds were titrated semilogarithmically.
(§2) Cytokines were determined in the aforementioned culture supernatant using the following methods: IL-17A was measured using the human homodimer IL-17A ELISA Ready Set Go Kit from cBioscience (Frankfurt, Germany); IL-17F using the human IL-17F ELI-Pair from Holzel Diagnostica GmbH (K51n, Germany); and IFNγ using the OptEIA human IFN-g ELISA from BD Bioscience (Heidelberg, Germany), all following the manufacturer's instructions.

Another assay has as its system IFNγ. Briefly: Cytokine assay, human PBMC stimulated with PHA: IFNγ. The assay is classed as cell-based. Conditions: PHA-activated, 48 hours, read-out: IFNγ inhibition (IC50 range). The method, then:
as §1, §2

Assay [1] concerns full length AR (AR-FL) mRNA. Briefly: Androgen receptor RNA level expression (qRT-PCR) in 22Rv1: AR-FL. The assay is classed as cell-based. Conditions: 22Rv1, 1 μM, 48 h; for mrna remaining at 1 µM: Homo sapiens, normalized to untreated control (vehicle/DMSO). As for the experimental part:
The prostate cancer cell line 22Rv1 was treated for 48 h with 1 μM Example compound 1, 1/1, 1/2, 2/1, 2/2, 2/3, 2/4, 2/5, 2/6, 2/7, 2/8, 2/9 and 2/10 and the reference compounds SR2211 and XY018 (Nat. Med. 2016; 22:488). RNA was extracted using the RNA isolation kit XS (Macherey-Nagel) and following the manufacture's manual. RNA quantity was measured with the Nanodrop before reverse transcription using Superscript II (Invitrogen #100004925). For the quantitative real-time PCR with SYBR-Green (Qiagen #204074), the following primers were used: AR forward-ACATCAAGGAACTCGATCGTATCATTGC and reverse-TTGGGCACTTGCACAGAGAT, AR-V7: forward-CCATCTTGTCGTCTTCGGAAATGTTATGAAGC and reverse-TTTGAATGAGGCAAGTCAGCCTTTCTT. The qRT-PCR proceeded as follows: denaturation for 5 min 95° C.; 40 cycles of “20 sec at 95° C. and 15 sec at 60° C.” and at the end of the last cycle, the melting temperature of the products was determined by gradually increasing it from 60° C. to 99° C. CT values from all samples were normalized to two different reference (housekeeping) genes using the mean CT value of the GAPDH and YWHAZ (reference genes). Next the values are normalized to the untreated control (vehicle/DMSO).
In general terms: Real-time PCR tracks product formation cycle by cycle.

The next assay has as its system AR-V7 protein. The experiment in a line: Androgen receptor protein expression (western blot) in 22Rv1: AR-V7. The assay is classed as cell-based, human. Conditions: 22Rv1, 6 μM, 48 h; for AR-V7 protein level: western blot quantification. The method, then:
After 48 h, cell were lysed using cell extraction buffer (Life Technologies #FNN0011) for western blot. […] The membrane is then incubation for 1 hour in blocking buffer (5% milk in 20 mM Tris, 150 mM NaCl, pH 7.5, 0.05% Tween 20 [TBS-T]). After this incubation, the primary antibody is added and incubated overnight at 4° C. After washing, the membrane was incubated with the secondary antibody for 1 h. Visualization of the bands was performed using the femto maximum sensitivity substrate reagent and the luminescence signal recorded with the Fusion FX7 (Vilber). For protein quantification, InageJ was used.
(In general: In western blotting, separated proteins are transferred to a membrane and probed.)

A further assay concerns the target T1, RORγt (Homo sapiens, UniProt P51449).
T1 sequence (P51449 269-518 limits assumed): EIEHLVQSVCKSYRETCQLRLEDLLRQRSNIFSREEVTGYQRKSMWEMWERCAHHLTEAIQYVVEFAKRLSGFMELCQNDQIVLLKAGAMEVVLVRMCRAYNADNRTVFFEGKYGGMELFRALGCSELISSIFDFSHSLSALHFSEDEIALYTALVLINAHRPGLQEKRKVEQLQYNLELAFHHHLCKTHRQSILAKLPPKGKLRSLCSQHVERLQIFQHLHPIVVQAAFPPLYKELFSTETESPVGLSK
The experiment in a line: RORγt inhibition, Indigo Biosciences Human RAR-related Orphan Receptor, Gamma Reporter Assay System. The assay is classed as cell-based. Conditions: luciferase reporter cells, 22-24 h incubation; read-out: IC50 range, RORγt assay. The method, then:
The in vitro inhibition of RORγt was measured using Indigo Biosciences Human RAR-related Orphan Receptor, Gamma Reporter Assay System (Product #11304001-32) as described in the technical manual. In brief, 200 μL of Reporter Cells is dispensed into wells of the assay plate and preincubated for 4-6 h. Following the pre-incubation period, culture media are discarded and 200 μL/well of the prepared 1×-concentration treatment media are added. Following 22-24 h incubation, treatment media are discarded and Luciferase Detection Reagent is added. The intensity of light emission (in units of ‘Relative Light Units’; RLU) from each assay well is quantified using a plate-reading luminometer. Average values of RLU were determined for each treatment concentration. Non-linear regression analyses were performed and IC50 values determined using GraphPad Prism software. Provided inverse-agonists ursolic acid served as positive control.
For orientation: Reporter assays use an easily measured gene product as a stand-in for the process of interest.

A short description of assay [2]: Viability and differentiation in different solid cancer cell lines. The assay is classed as cell-based. Conditions: range over HEK293, A2780, MT3, MCF7, NCIH460, A-375, HCT15, HT1080.
The test system of assay [3] is more than 75 representative cancer cell lines. The experiment in a line: Oncolead profiling in a panel of more than 75 cancer cell lines. The assay is classed as cell-based. Conditions: FIG. 1 and FIG. 2. The method, then:
The compound of Example 1 and Example 1/1 was tested in vitro in more than 75 representative cancer cell lines at Oncolead (www.oncolead.com) according their standard procedure. The obtained data is summarised in FIG. 1 (Example 1) and FIG. 2 (Example 1/1).

A further assay concerns AML cell line MOLM-13. Briefly: CellTiter-Blue proliferation assay, MOLM-13. Conditions: Homo sapiens, geometric mean relative IC50, 72 hours, read-out: IC50 range for cell line MOLM-13. The assay is classed as cell-based. As for the experimental part: (§3) Aim of this study was to evaluate compounds of Example 1, 1/1, 2/2, 2/5 and 2/6 in a proliferation assays. The 5 test compounds were tested in a CellTiter-Blue® based proliferation assay in three AML cell lines (HL-60, THP-1 and MOLM-13). The compounds were tested at 10 concentrations in half-log increments (highest concentration 30 μM or 100 μM) in duplicates. The incubation period with the applied compounds was fixed to 72 hours.

Another assay concerns AML cell line THP-1. Briefly: CellTiter-Blue proliferation assay, THP-1. Conditions: Homo sapiens, geometric mean relative IC50, 72 hours, read-out: IC50 range for cell line THP-1. The assay is classed as cell-based. The method, then: as §3

For the compound `CC(C)(O)CCn1ncc(-c2onc(-c3c(F)cccc3Cl)c2-c2ncccn2)c1C(F)(F)F` [2/8], the IC50 with IL-17F is less than 25 nM. Further, the IC50 in the assay with IFNγ is less than 25 nM. In addition, in assay [1], the “full length AR (AR-FL) mRNA expression” value is reported as “strong reduction” and the mrna remaining at 1 µM amounted to 44.9%. In the assay with AR-V7 protein, the “AR-V7 protein levels” value is on record as “strong reduction” and the AR-V7 protein level came out at 0.309. Moreover, the IC50 at RORγt was 10 to 100 nM.
As to `COC(=O)c1c(-c2c(F)cccc2Cl)noc1-c1cnn(-c2cccc(Cl)c2)c1C(F)(F)F` [Example 1, Methyl 3-(2-chloro-6-fluorophenyl)-5-(1-(3-chlorophenyl)-5-(trifluoromethyl)-1H-pyrazol-4-yl)isoxazole-4-carboxylate], the IC50 in the assay on IL-17F is less than 25 nM; in the assay with IFNγ it was less than 25 nM; in assay [2] it was 1 to 25 nM; in the assay on AML cell line MOLM-13, less than 10 nM; with AML cell line THP-1, 10 to 100 nM; on RORγt, less than 10 nM. For the same compound, the “in vitro anticancer activity (Z-score panel, words)” value in assay [3] is “exhibits an in vitro anticancer activity towards a broad spectrum of therapeutic cancer indication”. The “full length AR (AR-FL) mRNA expression” value in assay [1] was “strong reduction”. This compound had a mrna remaining at 1 µM in [1] of 44.2%. Besides, the “AR-V7 protein levels” value with AR-V7 protein was “strong reduction”. Also, the AR-V7 protein level in the assay on AR-V7 protein came out at 0.368.
Take `Fc1cccc(Cl)c1-c1noc(-c2cnn(-c3cccc(Cl)c3)c2C(F)(F)F)c1-c1nccs1` [Example 1/1]: the IC50 is less than 25 nM in the assay with IL-17F; less than 25 nM in the assay with IFNγ; 1 to 25 nM in [2]; less than 10 nM with AML cell line MOLM-13; less than 10 nM in the assay with AML cell line THP-1; less than 10 nM on RORγt. Also, the “in vitro anticancer activity (Z-score panel, words)” value in assay [3] is given as “exhibits an in vitro anticancer activity towards a broad spectrum of therapeutic cancer indication”. Besides, the “full length AR (AR-FL) mRNA expression” value in assay [1] is listed as “strong reduction”. For the same compound, the mrna remaining at 1 µM in assay [1] turned out to be 43.6%. The “AR-V7 protein levels” value in the assay on AR-V7 protein is listed as “strong reduction”. This compound returned an AR-V7 protein level in the assay with AR-V7 protein of 0.323.

The IC50 is the concentration needed to halve the response being measured.
